Results taken from BindingDB's records for doi:10.1016/j.bioorg.2017.01.008 (University of Karachi, 2017).
“And” between values parts separate entries of the source, which are not always exact repeats. Equal values may be shown once.

Assays:
[1] = biological target: T1, Alkaline phosphatase, tissue-nonspecific isozyme (Bos taurus, UniProt P09487); assay: Alkaline Phosphatase Inhibition Assay; settings: pH 9.8; 37 °C
T1 sequence (P09487 whole entry): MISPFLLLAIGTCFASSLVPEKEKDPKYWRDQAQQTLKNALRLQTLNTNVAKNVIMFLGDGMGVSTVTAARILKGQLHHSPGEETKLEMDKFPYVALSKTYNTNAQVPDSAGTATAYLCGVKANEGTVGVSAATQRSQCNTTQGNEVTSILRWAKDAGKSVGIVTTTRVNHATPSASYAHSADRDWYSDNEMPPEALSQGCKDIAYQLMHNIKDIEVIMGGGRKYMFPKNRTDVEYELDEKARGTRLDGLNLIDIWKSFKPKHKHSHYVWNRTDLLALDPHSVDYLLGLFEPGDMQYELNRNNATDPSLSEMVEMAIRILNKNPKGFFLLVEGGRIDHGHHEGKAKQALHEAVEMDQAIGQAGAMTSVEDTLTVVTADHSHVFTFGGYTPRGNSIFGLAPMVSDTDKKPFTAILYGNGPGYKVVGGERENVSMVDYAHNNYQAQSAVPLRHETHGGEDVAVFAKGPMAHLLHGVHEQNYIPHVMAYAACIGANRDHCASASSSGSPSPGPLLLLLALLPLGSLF
Method: (§1) Alkaline phosphatase (b-TNAP, c-IAP purchased from Calzyme Laboratories, Inc. USA) inhibition assay of different cyclic sulfonamides was performed using a chemiluminescent substrate i.e. CDP-Star® (disodium 2-chloro-5-(4-methoxyspiro[1,2-dioxetane-3,2'-(5-chlorotricyclo[3.3.1.13.7]decan])-4-yl]-1-phenyl phosphate). With a slight modification in reported spectrophotometric procedure, an optimized conditions of the bioassay were developed [Hessle et al., Proc. Natl. Acad. Sci., 99:9445-9449]. Buffer solution for this bioassay was composed of 8 M DEA (pH 9.8) that contain 2.5 mM MgCl2 and 0.05 mM ZnCl2. First of all, the compounds were tested at the final concentration of 200 μM(with final DMSO 1% (v/v)). In bioassay procedure, the total volume (50 μL solution) contained 10 μL of tested compound, followed by the addition of 20 μL of TNAP (1:800 times diluted (0.8 unit/mL) enzyme in assay buffer) or 20 μL of IAP (1:800 times diluted (1 unit/mL) enzyme in assay buffer). The mixture was allowed to incubate for 3-5 min at 37 °C and luminescence was measured using microplate reader (BioTek FLx800, Instruments,Inc. USA). The reaction was initiated by the addition of 20 μL of CDP-star® (final concentration of 110 μM) and the assay mixture was incubated again at 37 °C. The change in the luminescence was measured after for 15 min of incubation. The activity of each compound was compared with total activity control (without any inhibitor). Levamisole (2 mM per well) and L-phenylalanine (4 mM per well) were used as a standard inhibitors for tissuenonspecific alkaline phosphatase (TNAP) and calf intestinal alkaline phosphatase (IAP), respectively.

[2] = biological target: Intestinal-type alkaline phosphatase (Bos taurus, UniProt P19111); assay: Alkaline Phosphatase Inhibition Assay; settings: pH 9.8; 37 °C
Method: as §1

Chain of Intestinal-type alkaline phosphatase (P19111 whole entry): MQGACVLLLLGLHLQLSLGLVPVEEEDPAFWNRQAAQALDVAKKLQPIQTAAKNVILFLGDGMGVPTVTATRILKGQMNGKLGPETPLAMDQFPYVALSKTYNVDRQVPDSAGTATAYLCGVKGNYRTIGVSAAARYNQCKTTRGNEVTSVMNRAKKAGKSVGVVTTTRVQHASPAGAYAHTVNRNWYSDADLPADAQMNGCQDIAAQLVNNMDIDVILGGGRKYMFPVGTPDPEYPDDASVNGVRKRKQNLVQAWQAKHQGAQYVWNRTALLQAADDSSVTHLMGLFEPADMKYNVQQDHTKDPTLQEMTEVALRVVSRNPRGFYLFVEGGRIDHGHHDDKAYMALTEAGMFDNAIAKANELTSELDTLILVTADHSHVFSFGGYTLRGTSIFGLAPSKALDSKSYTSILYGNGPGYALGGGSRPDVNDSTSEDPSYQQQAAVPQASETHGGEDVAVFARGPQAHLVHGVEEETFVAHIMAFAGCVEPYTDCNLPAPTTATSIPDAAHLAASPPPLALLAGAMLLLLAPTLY

Structure (SMILES) | IC50 [1] | IC50 [2] [nM]
COc1cc(C2NS(=O)(=O)c3cccc4c(N(C)C)ccc2c34)ccc1O (stereo unspecified) [6-(Dimethylamino)-3-(4'-hydroxy-3'-methoxyphenyl)-2,3-dihydronaphtho[1,8-de][1,2]thiazine 1,1-dioxide (7j)] | 200 nM | 
COc1cc(Br)c(C2NS(=O)(=O)c3cccc4c(N(C)C)ccc2c34)cc1O (stereo unspecified) [6-(Dimethylamino)-3-(5'-bromo-2'-hydroxy-3'-methoxyphenyl)-2,3-dihydronaphtho[1,8-de][1,2]thiazine 1,1-dioxide (7m)] | 440 nM and 680 nM | 
CN(C)c1ccc2c3c(cccc13)S(=O)(=O)NC2c1cccc([N+](=O)[O-])c1 (stereo unspecified) [6-(Dimethylamino)-3-(3'-nitrophenyl)-2,3-dihydronaphtho[1,8-de][1,2]thiazine 1,1-dioxide (7f)] | 1450 nM | 
CSc1ccc(C2NS(=O)(=O)c3cccc4c(N(C)C)ccc2c34)cc1 (stereo unspecified) [6-(Dimethylamino)-3-(4'-thiomethylphenyl)-2,3-dihydronaphtho[1,8-de][1,2]thiazine 1,1-dioxide (7e)] | 6630 nM | 
COc1ccc(C2NS(=O)(=O)c3cccc4c(N(C)C)ccc2c34)cc1O (stereo unspecified) [6-(Dimethylamino)-3-(3'-hydroxy-4'-methoxyphenyl)-2,3-dihydronaphtho[1,8-de][1,2]thiazine 1,1-dioxide (7k)] | 270 nM and 1690 nM | 
CN(C)c1ccc2c3c(cccc13)S(=O)(=O)NC2c1ccc([N+](=O)[O-])cc1 (stereo unspecified) [6-(Dimethylamino)-3-(4'-nitrophenyl)-2,3-dihydronaphtho[1,8-de][1,2]thiazine 1,1-dioxide (7h)] | 110 nM | 
Cc1ccc(C2NS(=O)(=O)c3cccc4c(N(C)C)ccc2c34)cc1 (stereo unspecified) [6-(Dimethylamino)-3-(4'-methylphenyl)-2,3-dihydronaphtho[1,8-de][1,2]thiazine 1,1-dioxide (7c)] | 460 nM | 
CN(C)c1ccc2c3c(cccc13)S(=O)(=O)NC2c1ccc(O)cc1 (stereo unspecified) [6-(Dimethylamino)-3-(4'-hydroxyphenyl)-2,3-dihydronaphtho[1,8-de][1,2]thiazine 1,1-dioxide (7d)] | 500 nM | 
CN(C)c1ccc2c3c(cccc13)S(=O)(=O)NC2c1cc(Cl)cc(Cl)c1O (stereo unspecified) [6-(Dimethylamino)-3-(3',5'-dichloro-2-hydroxyphenyl)-2,3-dihydronaphtho[1,8-de][1,2]thiazine 1,1-dioxide (7g)] | 270 nM | 380
N[C@@H](Cc1ccccc1)C(=O)O [L-[2,3,4,5,6-3H]phenylalanine] | 80200 nM | 
CN(C)c1ccc2c3c(cccc13)S(=O)(=O)NC2c1ccc(Cl)cc1 (stereo unspecified) [6-(Dimethylamino)-3-(4'-dichlorophenyl)-2,3-dihydronaphtho[1,8-de][1,2]thiazine 1,1-dioxide (7b)] | 420 nM | 
CN(C)c1ccc2c3c(cccc13)S(=O)(=O)NC2c1ccccc1 (stereo unspecified) [6-(Dimethylamino)-3-phenyl-2,3-dihydronaphtho[1,8-de][1,2]thiazine 1,1-dioxide (7a)] | 190 nM | 1120
COc1ccccc1C1NS(=O)(=O)c2cccc3c(N(C)C)ccc1c23 (stereo unspecified) [6-(Dimethylamino)-3-(2'-methoxyphenyl)-2,3-dihydronaphtho[1,8-de][1,2]thiazine 1,1-dioxide (7i)] | 310 nM | 
COc1ccc(C2NS(=O)(=O)c3cccc4c(N(C)C)ccc2c34)c(OC)c1OC (stereo unspecified) [6-(Dimethylamino)-3-(2',3',4'-trimethoxyphenyl)-2,3-dihydronaphtho[1,8-de][1,2]thiazine 1,1-dioxide (7n)] | 1190 nM and 510 nM | 
